We go through one compound from the NIST ThermoML archive (doi:10.1016/j.tca.2019.01.016).

The conditions of this data set: 298 K; 101.33 kPa; Crystal; SIGMATEST 2.069 (Foerster) testing instrument - complex impedance measurements.

± gives the expanded uncertainty stated by the source.

Take `[Ag]` [silver]: the electrical conductivity worked out at 6.107e+07 ± 610000 S/m.
